Consider one compound from article PMC12627933, “A First-In-Human Study of the SUMOylation Inhibitor Subasumstat in Patients with Advanced/Metastatic Solid Tumors or Relapsed/Refractory Hematologic Malignancies” (Cancer Research Communications, 2025).

This assay concerns the target T1, SUMO-activating enzyme (SAE) (Homo sapiens, UniProt Q9UBT2).
T1 construct: from tissue; host or cells: patients' peripheral blood lymphocytes, skin biopsies and tumor biopsies
T1 sequence (Q9UBT2 1-640): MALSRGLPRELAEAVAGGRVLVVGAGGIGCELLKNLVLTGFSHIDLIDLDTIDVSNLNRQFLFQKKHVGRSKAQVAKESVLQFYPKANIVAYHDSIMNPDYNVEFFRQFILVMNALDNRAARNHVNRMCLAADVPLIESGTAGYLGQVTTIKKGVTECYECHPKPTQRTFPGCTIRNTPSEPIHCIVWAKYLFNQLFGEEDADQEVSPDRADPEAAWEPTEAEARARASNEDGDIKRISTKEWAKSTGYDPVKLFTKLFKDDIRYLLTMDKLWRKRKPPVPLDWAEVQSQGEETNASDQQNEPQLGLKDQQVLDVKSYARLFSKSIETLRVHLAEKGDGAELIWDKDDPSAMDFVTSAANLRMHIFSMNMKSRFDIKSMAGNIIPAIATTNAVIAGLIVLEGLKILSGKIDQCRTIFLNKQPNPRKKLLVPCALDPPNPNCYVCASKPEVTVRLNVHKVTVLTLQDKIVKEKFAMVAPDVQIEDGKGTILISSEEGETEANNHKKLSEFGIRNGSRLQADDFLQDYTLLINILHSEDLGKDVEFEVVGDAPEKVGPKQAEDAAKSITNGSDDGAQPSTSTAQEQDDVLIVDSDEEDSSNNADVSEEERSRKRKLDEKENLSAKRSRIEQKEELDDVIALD
T1 sequence (Q9UBE0 1-346 partner): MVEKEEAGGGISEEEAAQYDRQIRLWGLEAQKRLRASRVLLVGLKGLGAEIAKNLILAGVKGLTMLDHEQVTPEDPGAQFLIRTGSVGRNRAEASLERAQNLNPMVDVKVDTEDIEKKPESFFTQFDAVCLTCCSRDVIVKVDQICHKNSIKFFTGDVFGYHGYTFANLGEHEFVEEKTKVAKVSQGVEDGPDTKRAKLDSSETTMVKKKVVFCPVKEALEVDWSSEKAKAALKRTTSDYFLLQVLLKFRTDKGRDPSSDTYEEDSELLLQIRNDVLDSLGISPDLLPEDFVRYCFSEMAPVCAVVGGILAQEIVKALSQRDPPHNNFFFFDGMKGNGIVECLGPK
As to the kind of experiment: Target engagement: SUMO–subasumstat adduct formation in blood lymphocytes, skin and tumor (flow cytometry, IHC). The class given is in vivo. On the procedure: Blood samples for subasumstat–SUMO adduct formation and SUMO2/3 inhibition assessments were collected before dose and at 1, 4, and 8 hours after the infusion on C1D1 and C1D8. Blood samples for additional biomarker analyses were collected before dose on C1D1 and C1D8 and at 4, 8, and 24 hours after infusion on C1D1 and C1D8. Skin biopsies (used as surrogate tissue for solid tumors) were collected at screening and on C1D8 at 2 hours (±30 minutes) after end of infusion, and tumor biopsies were collected at screening and cycle 2 day 8 (C2D8; +7 days; whenever possible). In blood samples, a custom flow cytometry assay was utilized for detecting target engagement and SUMOylated protein levels in lymphocytes (including T-, B-, and NK-cell subsets). The assay included a PE-conjugated antibody specifically recognizing the SUMO–subasumstat adduct (MIL-113, anti–cysteinyl-TAK-981, Epitomics; refs. [14], [15], [22]) and an AF488-conjugated antibody recognizing SUMO2/3 conjugates (MBL International, cat. #M114-3, RRID: AB_592769). Peripheral blood cells were lysed/fixed, permeabilized (BD Biosciences), and stained with MIL-113 and M114-3 and with antibodies against CD45, CD3, CD19, CD16/CD56, and CD14. IHC assays for SUMO–subasumstat adduct and SUMO2/3 inhibition in skin biopsies and tumors were performed using MIL-113 and M114-3 antibodies. Activation of the IFNI pathway was assessed in peripheral blood by analysis of gene expression data (PanCancer IO 360 panel by NanoString for phase I and whole-transcriptome RNA sequencing data for phase II). Type I IFN gene signature was computed using geometric mean of the following genes: CCL2, CXCL10, DDX58, IRF7, ISG15, STAT1, and STAT2. These seven IFNI-regulated genes were selected prior to the trial, based on in vitro studies of the effect of subasumstat on human blood from 10 healthy donors analyzed on the NanoString PanCancer IO 360 panel. Plasma chemokines and cytokines were measured using the MesoScale Discovery platform (pro-inflammatory and chemokine panels, BioAgilytix). For assessment of NK- and T-cell activation, cells were suspended in buffer and incubated with the following monoclonal antibodies: APC-H7 mouse anti–human CD45 (BD Biosciences, cat. #560274), APC mouse anti–human CD69 (BD Biosciences, cat. #555533), BV421 mouse anti–human CD56 (BD Biosciences, cat. #562751), mouse anti–human CD16 PerCP-Cy5.5 (BD Biosciences, cat. #338440), BV510 mouse anti–human CD4 (BD Biosciences, cat. #563094), BV605 mouse anti–human CD8 (BD Biosciences, cat. #564116), and Alexa Fluor 700 anti–mouse CD3 antibody (BioLegend, cat. #100215), prior to assessment by flow cytometry using the BD Scientific FACSCanto flow cytometer (RRID: SCR_018055). Tumor PD-L1 expression level was assessed in paired tumor biopsies using the 22C3 PD-L1 IHC assay; combined positive score (CPS) was calculated for baseline and on-treatment tumor samples. The immune landscape in the tumor microenvironment (TME) was assessed using an integrated RNAscope and 27-marker MultiOmyx immunofluorescence panel.

With `Cc1sc(C(=O)c2cncnc2N[C@@H]2C[C@H](COS(N)(=O)=O)[C@@H](O)C2)cc1[C@@H]1NCCc2ccc(Cl)cc21` [subasumstat], the “Target engagement in tumor samples” value (all evaluated tumor samples, 8 patients 90 mg twice weekly (C2D8), 1 melanoma patient 25 mg twice weekly (C1D8)) is given as “robust target engagement”. For the same compound, the “Dose level from which SUMO–subasumstat adduct formation was detected” value (peripheral blood lymphocytes, C1D1 and C1D8, phase I) is given as at least 10 mg. In addition, the “Time to detection of SUMO–subasumstat adduct after end of infusion” value (peripheral blood lymphocytes, doses ≥10 mg) was at most 1 h. In addition, the “Persistence of target engagement” value (peripheral blood lymphocytes, twice weekly and once weekly schedules) is given as “at least 8 hours”. Besides, for the setting “skin biopsies 2 hours after the C1D8 dose”, the “Dose from which adduct formation was observed in skin biopsies” value is listed as at least 10 mg.
